From US10570129B2 (Zoetis Services LLC, priority 2015, dated 2020)

Tests used:
Haemonchus contortus L3 = assay: microbe, parasite or virus in culture; type: cell-based; conditions: Haemonchus contortus, 96 h, read-out: HcL3 Minimal Effective Concentration (MEC)
D. immitis microfilariae = assay: Dirofilaria immitis, microfilariae (DiMF) in vitro motility assay; type: cell-based; conditions: Dirofilaria immitis, 72 h, read-out: DiMF minimally effective dose (MEC)

Compound | minimal effective concentration (Haemonchus contortus L3) [µM] | minimal effective concentration (D. immitis microfilariae) [µM]
O=C(NCc1ccnc(F)c1)n1c2c(c3cc(F)c(Cl)cc31)CN(C/C=C/c1cc(F)c(F)c(F)c1)CC2 [Example 315, (E)-7-chloro-8-fluoro-N-((2-fluoropyridin-4-yl)methyl)-2-(3-(3,4,5-trifluorophenyl)allyl)-1,2,3,4-tetrahydro-5H-pyrido[4,3-b]indole-5-carboxamide] | 1 | 5.7
O=C(NCc1ccnc(F)c1)n1c2c(c3cc(F)c(Cl)cc31)CN(C/C=C/c1cc(F)cc(F)c1)CC2 [Example 316, (E)-7-chloro-2-(3-(3,5-difluorophenyl)allyl)-8-fluoro-N-((2-fluoropyridin-4-yl)methyl)-1,2,3,4-tetrahydro-5H-pyrido[4,3-b]indole-5-carboxamide] | > 100 | 5.7
O=C(NCc1ccnc(F)c1)n1c2c(c3cc(F)c(Cl)cc31)CN(C/C=C/c1ccc(F)cc1)CC2 [Example 319, (E)-7-chloro-8-fluoro-2-(3-(4-fluorophenyl)allyl)-N-((2-fluoropyridin-4-yl)methyl)-1,2,3,4-tetrahydro-5H-pyrido[4,3-b]indole-5-carboxamide] | 10 | 10
N#Cc1ccc(/C=C/CN2CCc3c(c4c(C(F)(F)F)cc(F)cc4n3C(=O)NCc3ccnc(Cl)c3)C2)cc1 [Example 320, (E)-N-((2-chloropyridin-4-yl)methyl)-2-(3-(4-cyanophenyl)allyl)-7-fluoro-9-(trifluoromethyl)-1,2,3,4-tetrahydro-5H-pyrido[4,3-b]indole-5-carboxamide] | 3.3 | 18.2
O=C(NCc1ccnc(Cl)c1)n1c2c(c3c(C(F)(F)F)cc(F)cc31)CN(C/C=C/c1ccc(Cl)cc1)CC2 [Example 322, (E)-2-(3-(4-chlorophenyl)allyl)-N-((2-chloropyridin-4-yl)methyl)-7-fluoro-9-(trifluoromethyl)-1,2,3,4-tetrahydro-5H-pyrido[4,3-b]indole-5-carboxamide] | 5.7 | 10
O=C(NCc1ccnc(Cl)c1)n1c2c(c3c(F)cc(C(F)(F)F)cc31)CN(C/C=C/c1ccc(Cl)cc1)CC2 [Example 323, (E)-2-(3-(4-chlorophenyl)allyl)-N-((2-chloropyridin-4-yl)methyl)-9-fluoro-7-(trifluoromethyl)-1,2,3,4-tetrahydro-5H-pyrido[4,3-b]indole-5-carboxamide] | > 100 | 7.6
O=C(NCc1ccnc(Cl)c1)n1c2c(c3c(C(F)(F)F)cc(F)cc31)CN(C/C=C/c1ccc(F)cc1)CC2 [Example 324, (E)-N-((2-chloropyridin-4-yl)methyl)-7-fluoro-2-(3-(4-fluorophenyl)allyl)-9-(trifluoromethyl)-1,2,3,4-tetrahydro-5H-pyrido[4,3-b]indole-5-carboxamide] | 3.3 | 10
O=C(NCc1ccnc(Cl)c1)n1c2c(c3c(F)cc(C(F)(F)F)cc31)CN(C/C=C/c1ccc(F)cc1)CC2 [Example 325, (E)-N-((2-chloropyridin-4-yl)methyl)-9-fluoro-2-(3-(4-fluorophenyl)allyl)-7-(trifluoromethyl)-1,2,3,4-tetrahydro-5H-pyrido[4,3-b]indole-5-carboxamide] | 3.3 | 7.6
O=C(NCc1ccnc(F)c1)n1c2c(c3c(C(F)(F)F)cc(F)cc31)CN(C/C=C/c1ccc(Cl)cc1)CC2 [Example 326, (E)-2-(3-(4-chlorophenyl)allyl)-7-fluoro-N-((2-fluoropyridin-4-yl)methyl)-9-(trifluoromethyl)-1,2,3,4-tetrahydro-5H-pyrido[4,3-b]indole-5-carboxamide] | 7.6 | 10
O=C(NCc1ccnc(F)c1)n1c2c(c3c(F)cc(C(F)(F)F)cc31)CN(C/C=C/c1ccc(Cl)cc1)CC2 [Example 327, (E)-2-(3-(4-chlorophenyl)allyl)-9-fluoro-N-((2-fluoropyridin-4-yl)methyl)-7-(trifluoromethyl)-1,2,3,4-tetrahydro-5H-pyrido[4,3-b]indole-5-carboxamide] | > 100 | 10
O=C(NCc1ccnc(Cl)c1)n1c2c(c3cc(Cl)c(C(F)(F)F)cc31)CN(C/C=C/c1ccc(Cl)cc1)CC2 [Example 328, (E)-8-chloro-2-(3-(4-chlorophenyl)allyl)-N-((2-chloropyridin-4-yl)methyl)-7-(trifluoromethyl)-1,2,3,4-tetrahydro-5H-pyrido[4,3-b]indole-5-carboxamide] | 0.3 | 33
COc1cc2c3c(n(C(=O)NCc4ccnc(Cl)c4)c2cc1C(F)(F)F)CCN(C/C=C/c1ccc(Cl)cc1)C3 [Example 329, (E)-2-(3-(4-chlorophenyl)allyl)-N-((2-chloropyridin-4-yl)methyl)-8-methoxy-7-(trifluoromethyl)-1,2,3,4-tetrahydro-5H-pyrido[4,3-b]indole-5-carboxamide] | 0.3 | 1.8
Cc1cc2c3c(n(C(=O)NCc4ccnc(Cl)c4)c2cc1C(F)(F)F)CCN(C/C=C/c1ccc(Cl)cc1)C3 [Example 330, (E)-2-(3-(4-chlorophenyl)allyl)-N-((2-chloropyridin-4-yl)methyl)-8-methyl-7-(trifluoromethyl)-1,2,3,4-tetrahydro-5H-pyrido[4,3-b]indole-5-carboxamide] | 0.5 | > 100
N#Cc1ccc(/C=C/CN2CCc3c(c4cc(C(F)(F)F)ccc4n3C(=O)NCc3ccnc(Cl)c3)C2)cc1 [Example 331, (E)-N-((2-chloropyridin-4-yl)methyl)-2-(3-(4-cyanophenyl)allyl)-8-(trifluoromethyl)-1,2,3,4-tetrahydro-5H-pyrido[4,3-b]indole-5-carboxamide] | 0.7 | 24
O=C(NCc1ccnc(Cl)c1)n1c2c(c3cc(C(F)(F)F)ccc31)CN(C/C=C/c1ccc(Cl)cc1)CC2 [Example 332, (E)-2-(3-(4-chlorophenyl)allyl)-N-((2-chloropyridin-4-yl)methyl)-8-(trifluoromethyl)-1,2,3,4-tetrahydro-5H-pyrido[4,3-b]indole-5-carboxamide] | 1 | 13.5
O=C(NCc1ccnc(Cl)c1)n1c2c(c3cc(C(F)(F)F)ccc31)CN(C/C=C/c1ccc(Cl)c(Cl)c1)CC2 [Example 333, (E)-N-((2-chloropyridin-4-yl)methyl)-2-(3-(3,4-dichlorophenyl)allyl)-8-(trifluoromethyl)-1,2,3,4-tetrahydro-5H-pyrido[4,3-b]indole-5-carboxamide] | 1.8 | > 100
O=C(NCc1ccnc(Cl)c1)n1c2c(c3cc(C(F)(F)F)ccc31)CN(C/C=C/c1ccc(F)cc1)CC2 [Example 334, (E)-N-((2-chloropyridin-4-yl)methyl)-2-(3-(4-fluorophenyl)allyl)-8-(trifluoromethyl)-1,2,3,4-tetrahydro-5H-pyrido[4,3-b]indole-5-carboxamide] | 1 | 10
O=C(NCc1ccnc(Cl)c1)n1c2c(c3cc(C(F)(F)F)ccc31)CN(C/C=C/c1ccc(OC(F)(F)F)cc1)CC2 [Example 335, (E)-N-((2-chloropyridin-4-yl)methyl)-2-(3-(4-(trifluoromethoxy)phenyl)allyl)-8-(trifluoromethyl)-1,2,3,4-tetrahydro-5H-pyrido[4,3-b]indole-5-carboxamide] | 10 | 24
O=C(NCc1ccnc(Cl)c1)n1c2c(c3ccc(OC(F)(F)F)cc31)CN(C/C=C/c1ccc(Cl)c(F)c1)CC2 [Example 336, (E)-2-(3-(4-chloro-3-fluorophenyl)allyl)-N-((2-chloropyridin-4-yl)methyl)-7-(trifluoromethoxy)-1,2,3,4-tetrahydro-5H-pyrido[4,3-b]indole-5-carboxamide] | 1 | 33
O=C(NCc1ccnc(Cl)c1)n1c2c(c3ccc(OC(F)(F)F)cc31)CN(C/C=C/c1ccc(Cl)cc1Cl)CC2 [Example 337, (E)-N-((2-chloropyridin-4-yl)methyl)-2-(3-(2,4-dichlorophenyl)allyl)-7-(trifluoromethoxy)-1,2,3,4-tetrahydro-5H-pyrido[4,3-b]indole-5-carboxamide] | 1 | 18.2
O=C(NCc1ccnc(Cl)c1)n1c2c(c3ccc(OC(F)(F)F)cc31)CN(C/C=C/c1ccc(Br)cc1F)CC2 [Example 338, (E)-2-(3-(4-bromo-2-fluorophenyl)allyl)-N-((2-chloropyridin-4-yl)methyl)-7-(trifluoromethoxy)-1,2,3,4-tetrahydro-5H-pyrido[4,3-b]indole-5-carboxamide] | 0.3 | 10
O=C(NCc1ccnc(Cl)c1)n1c2c(c3ccc(OC(F)(F)F)cc31)CN(C/C=C/c1c(F)cc(Cl)cc1F)CC2 [Example 339, (E)-2-(3-(4-chloro-2,6-difluorophenyl)allyl)-N-((2-chloropyridin-4-yl)-methyl)-7-(trifluoromethoxy)-1,2,3,4-tetrahydro-5H-pyrido[4,3-b]indole-5-carboxamide] | 0.5 | 0.5
O=C(NCc1ccnc(Cl)c1)n1c2c(c3ccc(OC(F)(F)F)cc31)CN(C/C=C/c1ccc(Cl)cc1F)CC2 [Example 340, (E)-2-(3-(4-chloro-2-fluorophenyl)allyl)-N-((2-chloropyridin-4-yl)methyl)-7-(trifluoromethoxy)-1,2,3,4-tetrahydro-5H-pyrido[4,3-b]indole-5-carboxamide] | 0.3 | 5.7
